Results from patent US20070054804A1, “Use of fungicides for disinfecting cereal seed” (BAYER CROPSCIENCE AKTIENGESELLSCHAFT, priority 2003, published 2007).

Tested on: Fusarium nivale
Test: Fusarium nivale test (wheat)/seed treatment
Format: in vivo
Settings: seed dressing of infected wheat seed, evaluated three weeks after sowing, 0% = control, 100% = no infection
Method: Fusarium nivale Test (Wheat)/Seed Treatment The active compounds or the active compound combination are/is applied using commercially available liquid seed dressings of the individual active compounds or the active compound combination. For seed dressing, the infected seed is shaken with the seed dressing in question in a closed plastic container for 3 minutes. For each test, in two seed trays in each case 100 wheat corns are sown at a depth of 3 cm in sand and covered with a layer of fine particulate clay. The seed trays are then placed in a greenhouse at a temperature of about 10° C. and a relative atmospheric humidity of 95% and exposed to light for 15 hours per day. Three weeks after sowing, the plants are evaluated for symptoms. The efficacy is expressed in %. 0% means an efficacy which corresponds to that of the control, whereas an efficacy of 100% means that no infection is observed.

SMILES	Efficacy in % (3 g active compound per 100 kg of seed)	Efficacy in % (5 g active compound per 100 kg of seed)
CC(C)(C)C(O)(CCc1ccc(Cl)cc1)Cn1cncn1 (centres unmarked) [tebuconazole]	11%	
OC(Cc1ccccc1Cl)(Cn1nc[nH]c1=S)C1(Cl)CC1 (centres unmarked) [prothioconazole, 2-[2-(1-chlorocyclopropyl)-3-(2-chlorophenyl)-2-hydroxypropyl]-2,4-dihydro[1,2,4]-triazole-3-thione]		57%
